Results: patent US20090215778A1, “Alpha-substituted Arylmethyl Piperazine Pyrazolo [1,5-alpha]Pyrimidine Amide Derivatives” (priority 2007, published 2009)

Experiments:
[1] = target: T1, HIV Env six-helix bundle (6HB) structure (Human immunodeficiency virus type 1 group M subtype B, UniProt P04579); experiment: Six-helix bundle (6HB) assay; assay type: cell-based, HIV-1 (strain RF)
T1 construct: H9 cells chronically infected with HIV-1 (H9/HIV-1RF); endogenous in cells; host or cells: H9 cells chronically infected with HIV-1 strain RF (Env is made from the virus in the infected cells, not by transfection)
Summary of the method: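 Flow cytometry measured binding of a six-helix-bundle-specific polyclonal antibody, detected with PE-labelled secondary at 4 °C for 45 min, on H9/HIV-1 RF chronically infected cells. Compound was given 30 min at 37 °C before 1 μg/mL soluble CD4 induction for 1 h. Inhibition appears as reduced fluorescence.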

HIV-1, NL4-3 strain = experiment: Virus infection assay (virus entry and single-cycle infection); assay type: cell-based; settings: Human immunodeficiency virus 1, NL43, TZM-b1, read-out: Nl4
Summary of the method: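 Single-cycle entry/infection read-out: β-galactosidase chemiluminescence measured one day after infection. Compounds were present during a 4 h, 37 °C exposure of TZM-b1 reporter cells to NL4-3 virus at MOI 0.01 plus DEAE-dextran (80 μg/mL final), followed by addition of complete medium.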

T1 sequence (P04579 32-519): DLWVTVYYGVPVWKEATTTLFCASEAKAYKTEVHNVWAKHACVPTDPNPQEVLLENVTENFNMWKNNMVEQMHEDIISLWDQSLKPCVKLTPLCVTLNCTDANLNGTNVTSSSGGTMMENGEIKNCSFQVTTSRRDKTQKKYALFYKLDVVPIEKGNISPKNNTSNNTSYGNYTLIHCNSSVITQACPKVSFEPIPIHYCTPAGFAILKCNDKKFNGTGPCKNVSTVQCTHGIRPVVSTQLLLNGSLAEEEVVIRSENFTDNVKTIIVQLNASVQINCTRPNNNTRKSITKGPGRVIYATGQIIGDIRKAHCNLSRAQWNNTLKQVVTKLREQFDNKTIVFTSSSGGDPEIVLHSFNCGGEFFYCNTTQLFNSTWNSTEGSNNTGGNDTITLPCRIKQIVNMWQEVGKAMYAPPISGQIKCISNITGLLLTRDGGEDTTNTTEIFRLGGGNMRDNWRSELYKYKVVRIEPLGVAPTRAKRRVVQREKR
T1 sequence (P04579 520-865): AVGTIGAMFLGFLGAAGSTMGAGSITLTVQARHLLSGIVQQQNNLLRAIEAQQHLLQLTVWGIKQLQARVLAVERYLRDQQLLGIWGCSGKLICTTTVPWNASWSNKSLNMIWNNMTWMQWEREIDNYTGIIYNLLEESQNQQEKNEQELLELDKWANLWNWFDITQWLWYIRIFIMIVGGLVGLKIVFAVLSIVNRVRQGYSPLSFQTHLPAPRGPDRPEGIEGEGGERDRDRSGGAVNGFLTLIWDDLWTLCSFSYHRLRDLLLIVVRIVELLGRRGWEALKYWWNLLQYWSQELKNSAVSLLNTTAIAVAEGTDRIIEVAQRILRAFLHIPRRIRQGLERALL

SMILES | IC50 [1] | IC50 (HIV-1, NL4-3 strain)
COc1ccc(-c2nc3c(C(=O)N4CCN(C(CO)c5cnccc5OC)C[C@H]4C)cnn3c(C(F)(F)F)c2C)cc1 (stereo partly drawn) [methanone, [(2R)-4-[2-hydroxy-1-(4-methoxy-3-pyridinyl)ethyl]-2-methyl-1-piperazinyl][5-(4-methoxyphenyl)-6-methyl-7-(trifluoromethyl)pyrazolo[1,5-α]pyrimidin-3-yl]-] | < 1000 nM | < 1000 nM
COc1ccc(-c2nc3c(C(=O)N4CCN(C(CO)c5ccc(OC)cc5)C[C@H]4C)cnn3c(C(F)(F)F)c2C)cc1 (stereo partly drawn) [methanone, [(2R)-4-[2-hydroxy-1-(4-methoxyphenyl)ethyl]-2-methyl-1-piperazinyl][5-(4-methoxyphenyl)-6-methyl-7-(trifluoromethyl)pyrazolo[1,5-α]pyrimidin-3-yl]-] | < 1000 nM | < 1000 nM
COc1ccc(-c2nc3c(C(=O)N4CCN(C(CO)c5cc(C)cs5)C[C@H]4C)cnn3c(C(F)(F)F)c2C)cc1 (stereo partly drawn) [methanone, [(2R)-4-[2-hydroxy-1-(4-methyl-2-thienyl)ethyl]-2-methyl-1-piperazinyl][5-(4-methoxyphenyl)-6-methyl-7-(trifluoromethyl)pyrazolo[1,5-α]pyrimidin-3-yl]-] | < 1000 nM | < 1000 nM
COc1ccc(-c2nc3c(C(=O)N4CCN(C(CO)c5ccc(OC)nc5)C[C@H]4C)cnn3c(C(F)(F)F)c2C)cc1 (stereo partly drawn) [methanone, [(2R)-4-[2-hydroxy-1-(6-methoxy-3-pyridinyl)ethyl]-2-methyl-1-piperazinyl][5-(4-methoxyphenyl)-6-methyl-7-(trifluoromethyl)pyrazolo[1,5-α]pyrimidin-3-yl]-] | < 1000 nM | < 1000 nM
COc1ccc(-c2nc3c(C(=O)N4CCN(C(CO)c5ccccc5OC(F)(F)F)C[C@H]4C)cnn3c(C(F)(F)F)c2C)cc1 (stereo partly drawn) [methanone, [(2R)-4-[2-hydroxy-1-[2-(trifluoromethoxy)phenyl]ethyl]-2-methyl-1-piperazinyl][5-(4-methoxyphenyl)-6-methyl-7-(trifluoromethyl)pyrazolo[1,5-α]pyrimidin-3-yl]-] | 1100 to 10000 nM | 1100 to 10000 nM
COc1ccc(-c2nc3c(C(=O)N4CCN(C(CO)c5ccccc5C(F)(F)F)C[C@H]4C)cnn3c(C(F)(F)F)c2C)cc1 (stereo partly drawn) [methanone, [(2R)-4-[2-hydroxy-1-[2-(trifluoromethyl)phenyl]ethyl]-2-methyl-1-piperazinyl][5-(4-methoxyphenyl)-6-methyl-7-(trifluoromethyl)pyrazolo[1,5-α]pyrimidin-3-yl]-] | < 1000 nM | < 1000 nM
COc1ccc(-c2nc3c(C(=O)N4CCN(C(CO)c5cccc(N6CCNCC6)c5)C[C@H]4C)cnn3c(C(F)(F)F)c2C)cc1 (stereo partly drawn) [methanone, [(2R)-4-[2-hydroxy-1-[3-(1-piperazinyl)phenyl]ethyl]-2-methyl-1-piperazinyl][5-(4-methoxyphenyl)-6-methyl-7-(trifluoromethyl)pyrazolo[1,5-α]pyrimidin-3-yl]-] | > 10100 nM | > 10100 nM
COc1ccc(-c2nc3c(C(=O)N4CCN(C(CO)c5cccc(N6CCCC6)c5)C[C@H]4C)cnn3c(C(F)(F)F)c2C)cc1 (stereo partly drawn) [methanone, [(2R)-4-[2-hydroxy-1-[3-(1-pyrrolidinyl)phenyl]ethyl]-2-methyl-1-piperazinyl][5-(4-methoxyphenyl)-6-methyl-7-(trifluoromethyl)pyrazolo[1,5-α]pyrimidin-3-yl]-] | < 1000 nM | < 1000 nM
COc1ccc(-c2nc3c(C(=O)N4CCN(C(CO)c5cccc(N6CCOCC6)c5)C[C@H]4C)cnn3c(C(F)(F)F)c2C)cc1 (stereo partly drawn) [methanone, [(2R)-4-[2-hydroxy-1-[3-(4-morpholinyl)phenyl]ethyl]-2-methyl-1-piperazinyl][5-(4-methoxyphenyl)-6-methyl-7-(trifluoromethyl)pyrazolo[1,5-α]pyrimidin-3-yl]-] | 1100 to 10000 nM | 1100 to 10000 nM
COc1ccc(-c2nc3c(C(=O)N4CCN(C(CO)c5cccc(S(C)(=O)=O)c5)C[C@H]4C)cnn3c(C(F)(F)F)c2C)cc1 (stereo partly drawn) [methanone, [(2R)-4-[2-hydroxy-1-[3-(methylsulfonyl)phenyl]ethyl]-2-methyl-1-piperazinyl][5-(4-methoxyphenyl)-6-methyl-7-(trifluoromethyl)pyrazolo[1,5-α]pyrimidin-3-yl]-] | > 10100 nM | > 10100 nM
COc1ccc(-c2nc3c(C(=O)N4CCN(C(CO)c5cccc(OC(F)(F)F)c5)C[C@H]4C)cnn3c(C(F)(F)F)c2C)cc1 (stereo partly drawn) [methanone, [(2R)-4-[2-hydroxy-1-[3-(trifluoromethoxy)phenyl]ethyl]-2-methyl-1-piperazinyl][5-(4-methoxyphenyl)-6-methyl-7-(trifluoromethyl)pyrazolo[1,5-α]pyrimidin-3-yl]-] | < 1000 nM | < 1000 nM
COc1ccc(-c2nc3c(C(=O)N4CCN(C(CO)c5cccc(C(F)(F)F)c5)C[C@H]4C)cnn3c(C(F)(F)F)c2C)cc1 (stereo partly drawn) [methanone, [(2R)-4-[2-hydroxy-1-[3-(trifluoromethyl)phenyl]ethyl]-2-methyl-1-piperazinyl][5-(4-methoxyphenyl)-6-methyl-7-(trifluoromethyl)pyrazolo[1,5-α]pyrimidin-3-yl]-] | < 1000 nM | 1100 to 10000 nM
COc1ccc(-c2nc3c(C(=O)N4CCN([C@@H](CO)c5cccc(OC)c5F)C[C@H]4C)cnn3c(C(F)(F)F)c2C)cc1 [methanone, [(2R)-4-[(1R)-1-(2-fluoro-3-methoxyphenyl)-2-hydroxyethyl]-2-methyl-1-piperazinyl][5-(4-methoxyphenyl)-6-methyl-7-(trifluoromethyl)pyrazolo[1,5-α]pyrimidin-3-yl]-] | < 1000 nM | < 1000 nM
COc1ccc(-c2nc3c(C(=O)N4CCN([C@@H](CO)c5ccccc5F)C[C@H]4C)cnn3c(C(F)(F)F)c2C)cc1 [methanone, [(2R)-4-[(1R)-1-(2-fluorophenyl)-2-hydroxyethyl]-2-methyl-1-piperazinyl][5-(4-methoxyphenyl)-6-methyl-7-(trifluoromethyl)pyrazolo[1,5-α]pyrimidin-3-yl]-] | < 1000 nM | < 1000 nM
COc1ccc(-c2nc3c(C(=O)N4CCN([C@H](CO)c5ccco5)C[C@H]4C)cnn3c(C(F)(F)F)c2C)cc1 [methanone, [(2R)-4-[(1R)-1-(2-furanyl)-2-hydroxyethyl]-2-methyl-1-piperazinyl][5-(4-methoxyphenyl)-6-methyl-7-(trifluoromethyl)pyrazolo[1,5-α]pyrimidin-3-yl]-] | < 1000 nM | < 1000 nM
COc1ccc(-c2nc3c(C(=O)N4CCN([C@H](C)c5ccc(F)c(F)c5)C[C@H]4C)cnn3c(C(F)(F)F)c2C)cc1 [methanone, [(2R)-4-[(1R)-1-(3,4-difluorophenyl)ethyl]-2-methyl-1-piperazinyl][5-(4-methoxyphenyl)-6-methyl-7-(trifluoromethyl)pyrazolo[1,5-α]pyrimidin-3-yl]-] | < 1000 nM | < 1000 nM
COc1ccc(-c2nc3c(C(=O)N4CCN([C@H](C)c5cc(F)cc(F)c5)C[C@H]4C)cnn3c(C(F)(F)F)c2C)cc1 [methanone, [(2R)-4-[(1R)-1-(3,5-difluorophenyl)ethyl]-2-methyl-1-piperazinyl][5-(4-methoxyphenyl)-6-methyl-7-(trifluoromethyl)pyrazolo[1,5-α]pyrimidin-3-yl]-] | < 1000 nM | < 1000 nM
